Measured values from ChEMBL document CHEMBL1137771, “Non-nucleoside inhibitors of HCV polymerase NS5B. Part 2: Synthesis and structure-activity relationships of benzothiazine-substituted quinolinediones” (Bioorg Med Chem Lett, 2009).
Values after ≈ are worked out from the molar mass of the structure shown.

How the values were obtained:
[1] = Oral bioavailability in rat; format: ADME, organism-based; conditions: in vivo
Hepatitis C virus [2] = experiment: Inhibition of HCV 1b isolate BK NS5B Cdelta21 polymerase expressed in Escherichia coli; set-up: species or system Hepatitis C virus subtype 1b
[3] = Solubility of the compound; format: physicochemical
[4] = Cytotoxicity against human 2209-23 cells by WST1 assay; format: cell-based
Hepatitis C virus [5] = experiment: Antiviral activity against HCV genotype 1b isolate con1 infected in human 2209-23 cells assessed as inhibition of [3H]thymidine incorporation into DNA by scintillation proximity assay in presence of 5% fetal bovine serum; format: functional, organism-based, Hepacivirus hominis; conditions: isolate Con1, 2209-23
Hepatitis C virus [6] = experiment: Inhibition of HCV genotype 1b isolate con1 NS5B polymerase assessed as incorporation of radiolabeled nucleotide into RNA product; set-up: species or system Hepacivirus hominis
Hepatitis C virus [7] = experiment: Antiviral activity against HCV genotype 1b isolate con1 infected in human 2209-23 cells assessed as inhibition of [3H]thymidine incorporation into DNA by scintillation proximity assay in presence of 40% human serum albumin; format: functional, organism-based, Hepacivirus hominis; conditions: isolate Con1, 2209-23
Hepatitis C virus [8] = experiment: Ratio of EC50 for HCV genotype 1b isolate con1 in presence of human serum albumin to EC50 for HCV genotype 1b isolate con1 in presence of fetal bovine serum; format: functional, Hepacivirus hominis
[9] = Dissociation constant, pKa of the compound; format: physicochemical
Hepatitis C virus [10] = experiment: Antiviral activity against HCV genotype 1b infected in human HuH7 cells by replicon assay; format: functional, organism-based, Hepacivirus hominis; conditions: Huh-7

SMILES | bioavailability [1] [%] | IC50 (Hepatitis C virus [2]) [nM] | solubility [3] [µg/mL] | CC50 [4] [nM] | EC50 (Hepatitis C virus [5]) [nM] | IC50 (Hepatitis C virus [6]) [nM] | EC50 (Hepatitis C virus [7]) [nM] | fold change (FC) (Hepatitis C virus [8]) | pKa [9] | EC50 (Hepatitis C virus [10]) [nM]
O=c1c(C2=Nc3ccccc3S(=O)(=O)N2)c(O)c2cc(F)ccc2n1CCC1CC1 | 10 | 30 | < 1 |  |  |  |  |  |  | 
CS(=O)(=O)Nc1ccc2c(c1)S(=O)(=O)C=C(c1c(O)c3cc(F)ccc3n(Cc3cccnc3)c1=O)N2 |  |  |  | > 50000 | 589 | 22 |  |  |  | 
CCCC(C)n1c(=O)c(C2=CS(=O)(=O)c3cc(NS(C)(=O)=O)ccc3N2)c(O)c2cc(F)ccc21 (stereo not given) |  |  |  | > 50000 | 9 | 41 |  |  |  | 
CC(C)(C)CCn1c(=O)c(C2=CS(=O)(=O)c3cc(NS(C)(=O)=O)ccc3N2)c(O)c2cc(F)ccc21 |  |  |  | > 50000 |  | 12 | 241 |  |  | 
COC(C)(C)CCn1c(=O)c(C2=CS(=O)(=O)c3cc(NS(C)(=O)=O)ccc3N2)c(O)c2cc(F)ccc21 |  |  |  | > 50000 | 47 | 10 | 1200 | 9.2 |  | 
CC(=O)Nc1ccc2c(c1)S(=O)(=O)C=C(c1c(O)c3cc(F)ccc3n(Cc3ccc(F)cc3)c1=O)N2 |  |  |  | > 50000 | 10900 | 869 |  |  |  | 
CS(=O)(=O)Nc1ccc2c(c1)S(=O)(=O)C=C(c1c(O)c3cc(F)ccc3n(Cc3ccc(F)cc3)c1=O)N2 |  |  |  | > 50000 | 14 |  |  | 13 | 3.8 | 
O=c1c(C2=CS(=O)(=O)c3ccccc3N2)c(O)c2cc(F)ccc2n1Cc1ccc(F)cc1 |  |  |  | > 50000 | 726 |  |  |  |  | 
O=c1c(C2=CS(=O)(=O)c3ccccc3N2)c(O)c2cc(F)ccc2n1CCC1CC1 | 79 |  | 8 (≈ 18.8 µM) |  |  |  |  |  |  | 1200
O=c1c(C2=CS(=O)(=O)c3cc(F)ccc3N2)c(O)c2cc(F)ccc2n1Cc1ccc(F)cc1 |  |  |  | > 50000 | 1280 | 148 |  |  |  | 
N#Cc1ccc2c(c1)S(=O)(=O)C=C(c1c(O)c3cc(F)ccc3n(Cc3ccc(F)cc3)c1=O)N2 |  |  |  | > 50000 | 4640 | 694 |  |  |  | 
CS(=O)(=O)Nc1ccc2c(c1)S(=O)(=O)C=C(c1c(O)c3cc(Cl)ccc3n(Cc3ccc(F)cc3)c1=O)N2 |  |  |  | > 50000 | 166 | 10 |  |  |  | 
CS(=O)(=O)Nc1ccc2c(c1)S(=O)(=O)C=C(c1c(O)c3cc(F)ccc3n(Cc3ccncc3)c1=O)N2 |  |  |  | > 50000 | 64 | 11 | 688 | 9.2 |  | 
Nc1ccc2c(c1)S(=O)(=O)C=C(c1c(O)c3cc(F)ccc3n(Cc3ccc(F)cc3)c1=O)N2 |  |  |  | > 50000 | 827 | 734 |  |  |  | 
NC(=O)COc1ccc2c(c1)S(=O)(=O)C=C(c1c(O)c3cc(F)ccc3n(Cc3ccc(F)cc3)c1=O)N2 |  |  |  | > 50000 | 1190 | 10 |  |  |  | 
NS(=O)(=O)Nc1ccc2c(c1)S(=O)(=O)C=C(c1c(O)c3cc(F)ccc3n(Cc3ccc(F)cc3)c1=O)N2 |  |  |  | > 50000 | 15 | 7 |  |  |  | 
CN(c1ccc2c(c1)S(=O)(=O)C=C(c1c(O)c3cc(F)ccc3n(Cc3ccc(F)cc3)c1=O)N2)S(C)(=O)=O |  |  |  | > 50000 | 1470 | 106 |  |  |  | 

SMILES | bioavailability [1] [%] | IC50 (Hepatitis C virus [2]) [nM] | solubility [3] [µg/mL] | CC50 [4] [nM] | EC50 (Hepatitis C virus [5]) [nM] | IC50 (Hepatitis C virus [6]) [nM] | EC50 (Hepatitis C virus [7]) [nM] | fold change (FC) (Hepatitis C virus [8]) | pKa [9] | EC50 (Hepatitis C virus [10]) [nM]
CS(=O)(=O)Nc1ccc2c(c1)S(=O)(=O)C=C(c1c(O)c3ccccc3n(Cc3ccc(F)cc3)c1=O)N2 |  |  |  | > 50000 | 42 | 2 | 542 | 13 |  | 
CS(=O)(=O)Nc1ccc2c(c1)S(=O)(=O)C=C(c1c(O)c3c(Cl)cccc3n(Cc3ccc(F)cc3)c1=O)N2 |  |  |  | > 50000 | 48 | 12 | 593 | 12.3 |  | 
CS(=O)(=O)Nc1ccc2c(c1)S(=O)(=O)C=C(c1c(O)c3cccc(F)c3n(Cc3ccc(F)cc3)c1=O)N2 |  |  |  | > 50000 | 103 | 8 | 2780 | 26.9 |  | 
CS(=O)(=O)Nc1ccc2c(c1)S(=O)(=O)C=C(c1c(O)c3cc(F)ccc3n(Cc3ccccc3)c1=O)N2 |  |  |  | > 50000 | 44 | 7 | 406 | 9.2 |  | 
CS(=O)(=O)NCc1ccc2c(c1)S(=O)(=O)C=C(c1c(O)c3cc(F)ccc3n(Cc3ccc(F)cc3)c1=O)N2 |  |  |  | > 50000 | 6930 | 68 |  |  |  | 
COc1ccc2c(c1)c(O)c(C1=CS(=O)(=O)c3cc(NS(C)(=O)=O)ccc3N1)c(=O)n2Cc1ccc(F)cc1 |  |  |  | > 50000 | 143 | 5 | 2050 | 14.3 |  | 
CS(=O)(=O)Nc1ccc2c(c1)S(=O)(=O)C=C(c1c(O)c3ccc(F)cc3n(Cc3ccc(F)cc3)c1=O)N2 |  |  |  | > 50000 | 74 | 10 | 898 | 12.1 |  | 
CS(=O)(=O)Nc1ccc2c(c1)S(=O)(=O)C=C(c1c(O)c3cc(F)ccc3n(Cc3ccc(F)c(Cl)c3)c1=O)N2 |  |  |  | > 50000 | 18 | 16 |  |  |  | 
CNC(=O)COc1ccc2c(c1)S(=O)(=O)C=C(c1c(O)c3cc(F)ccc3n(Cc3ccc(F)cc3)c1=O)N2 |  |  |  | > 50000 | 869 | 25 |  |  |  | 
CS(=O)(=O)Nc1ccc2c(c1)S(=O)(=O)C=C(c1c(O)c3cc(F)ccc3n(Cc3ccc(F)c(F)c3)c1=O)N2 |  |  |  | > 50000 | 15 | 14 |  |  |  | 
CS(=O)(=O)Nc1ccc2c(c1)S(=O)(=O)C=C(c1c(O)c3cc(F)ccc3n(Cc3ccccn3)c1=O)N2 |  |  |  | > 50000 | 1200 | 103 |  |  |  | 
O=c1c(C2=CS(=O)(=O)c3cc(O)ccc3N2)c(O)c2cc(F)ccc2n1Cc1ccc(F)cc1 |  |  |  | > 50000 | 1740 | 69 |  |  |  | 
CS(=O)(=O)Nc1ccc2c(c1)S(=O)(=O)C=C(c1c(O)c3cc(F)ccc3n(CC3CCCCC3)c1=O)N2 |  |  |  | > 50000 | 100 | 18 |  |  |  | 
COc1cc(Cn2c(=O)c(C3=CS(=O)(=O)c4cc(NS(C)(=O)=O)ccc4N3)c(O)c3cc(F)ccc32)ccc1F |  |  |  | > 50000 | 100 | 10 | 528 | 9.2 |  | 
Cc1ccc2c(c1)c(O)c(C1=CS(=O)(=O)c3cc(NS(C)(=O)=O)ccc3N1)c(=O)n2Cc1ccc(F)cc1 |  |  |  | > 50000 | 25 | 17 |  |  |  | 
CS(=O)(=O)Nc1ccc2c(c1)S(=O)(=O)C=C(c1c(O)c3ccc(Cl)cc3n(Cc3ccc(F)cc3)c1=O)N2 |  |  |  | > 50000 | 2280 | 384 |  |  |  | 
CS(=O)(=O)c1ccc2c(c1)S(=O)(=O)C=C(c1c(O)c3cc(F)ccc3n(Cc3ccc(F)cc3)c1=O)N2 |  |  |  | > 50000 | 11900 | 3700 |  |  |  | 
